Counter-ions that a name gives are not always drawn.
System: 4 PI3K isoforms (Human recombinant GST-PI3K)
Experiment: PI3K scintillation proximity assay, best IC50 obtained with the four isoforms (alpha, beta, delta, gamma)
Format: biochemical
Settings: best IC50 obtained with the four isoforms of PI3K; read-out: Best potency measured on the 4 PI3K isoforms

SMILES | IC50
O=C(c1nn(-c2cccnc2)c2c1CS(=O)(=O)c1ccccc1-2)N1CCOCC1 [Example 88, 3-(Morpholin-4-ylcarbonyl)-1-pyridin-3-yl-1,4-dihydrothiochromeno[4,3-c]pyrazole 5,5-dioxide] | 1130 nM
O=C(c1nn(-c2cccc(CN3CCCCC3)c2)c2c1CS(=O)(=O)c1ccccc1-2)N1CCOCC1 [Example 178, 3-(Morpholin-4-ylcarbonyl)-1-[3-(piperidin-1-ylmethyl)phenyl]-1,4-dihydrothiochromeno[4,3-c]pyrazole 5,5-dioxide] | 394 nM
O=C(c1nn([C@H]2CCCN(CCN3CCC(F)C3)C2)c2c1CS(=O)(=O)c1ccccc1-2)N1CCOCC1 (single isomer, unassigned) [Example 367] | 32 nM
COC1CCN(CCN2CCC[C@H](n3nc(C(=O)N4CCOCC4)c4c3-c3ccc(F)cc3S(=O)(=O)C4)C2)CC1 (stereo in doubt) [Example 474, 7-fluoro-1-{1-[2-(4-methoxypiperidin-1-yl)ethyl]piperidin-3-yl}-3-(morpholin-4-ylcarbonyl)-1,4-dihydrothiochromeno[4,3-c]pyrazole 5,5-dioxide] | 13 nM
CC1CN(C(=O)c2nn(-c3ccccc3)c3c2CS(=O)(=O)c2ccccc2-3)CCO1 (stereo not drawn) [Example 163, 3-[(2-Methylmorpholin-4-yl)carbonyl]-1-phenyl-1,4-dihydrothiochromeno[4,3-c]pyrazole 5,5-dioxide] | 2160 nM
O=C(c1nn(C2CCN(CCC3CCOCC3)CC2)c2c1CS(=O)(=O)c1ccccc1-2)N1CCOCC1 [Example 285, 3-(morpholin-4-ylcarbonyl)-1-{1-[2-(tetrahydro-2H-pyran-4-yl)ethyl]piperidin-4-yl}-1,4-dihydrothiochromeno[4,3-c]pyrazole 5,5-dioxide] | 692 nM
Cn1nc(C(=O)N2CCOCC2)c2c1-c1cccc(F)c1S(=O)(=O)C2 [Example 14, 6-fluoro-1-methyl-3-(morpholin-4-ylcarbonyl)-1,4-dihydrothiochromeno[4,3-c]pyrazole 5,5-dioxide] | 687 nM
CC(=O)Nc1cccc2c1S(=O)(=O)Cc1c(C(=O)N3CCOCC3)nn(-c3ccccc3)c1-2 [Example 322] | 9880 nM
O=C(c1nn([C@H]2CCCN(CCN3CC(F)(F)C3)C2)c2c1CS(=O)(=O)c1ccccc1-2)N1CCOCC1 (single isomer, unassigned) [Example 362, 1-{1-[2-(3,3-difluoroazetidin-1-yl)ethyl]piperidin-3-yl}-3-(morpholin-4-ylcarbonyl)-1,4-dihydrothiochromeno[4,3-c]pyrazole 5,5-dioxide] | 17 nM
CN1c2c(C(=O)N3CCOCC3)nn(-c3ccccc3)c2-c2ccccc2S1(=O)=O [Example 488, 4-Methyl-3-(morpholin-4-ylcarbonyl)-1-phenyl-1,4-dihydropyrazolo[4,3-c][1,2]benzothiazine 5,5-dioxide] | 3460 nM
COCCN(CCOC)CCN1CCC[C@H](n2nc(C(=O)N3CCOCC3)c3c2-c2ccccc2S(=O)(=O)C3)C1 (stereo in doubt) [Example 448, 2-methoxy-N-(2-methoxyethyl)-N-(2-{3-[3-(morpholin-4-ylcarbonyl)-5,5-dioxidothiochromeno[4,3-c]pyrazol-1(4H)-yl]piperidin-1-yl}ethyl)ethanamine] | 113 nM
COC1CN(Cc2cccc(-n3nc(C(=O)N4CCOCC4)c4c3-c3ccccc3S(=O)(=O)C4)c2)C1 [Example 262, 1-{3-[(3-Methoxyazetidin-1-yl)methyl]phenyl}-3-(morpholin-4-ylcarbonyl)-1,4-dihydrothiochromeno[4,3-c]pyrazole 5,5-dioxide] | 277 nM
O=C(c1nn(C2CCCN(CC3CCOC3)C2)c2c1CS(=O)(=O)c1c(F)cccc1-2)N1CCOCC1 (stereo not drawn) [Example 404, 6-Fluoro-3-(morpholin-4-ylcarbonyl)-1-[1-(tetrahydrofuran-3-ylmethyl)piperidin-3-yl]-1,4-dihydrothiochromeno[4,3-c]pyrazole 5,5-dioxide] | 21 nM
O=C(c1nn(-c2ccc(CN3CCOCC3)cc2)c2c1CS(=O)(=O)c1ccc(F)cc1-2)N1CCOCC1 [Example 392, 8-Fluoro-3-(morpholin-4-ylcarbonyl)-1-[4-(morpholin-4-ylmethyl)phenyl]-1,4-dihydrothiochromeno[4,3-c]pyrazole 5,5-dioxide] | 555 nM
NC(=O)c1cccc(-n2nc(C(=O)N3CCOCC3)c3c2-c2ccccc2S(=O)(=O)C3)c1 [Example 62, 3-[3-(Morpholin-4-ylcarbonyl)-5,5-dioxidothiochromeno[4,3-c]pyrazol-1(4H)-yl]benzamide] | 957 nM
COc1ccc(C(=O)Cn2nc(C(=O)N3CCOCC3)c3c2-c2ccccc2S(=O)(=O)C3)cc1 [Example 317] | 14500 nM
O=C(c1nn(C2CCCOC2)c2c1CS(=O)(=O)c1ccccc1-2)N1CCOCC1 (stereo not drawn) [Example 99] | 326 nM

Other lines, results leading:

IC50 | SMILES
6 nM | O=C(c1nn([C@H]2CCCN(CCC3CCOCC3)C2)c2c1CS(=O)(=O)c1c(F)cccc1-2)N1CCOCC1 (single isomer, unassigned) [Example 344, 6-fluoro-3-(morpholin-4-ylcarbonyl)-1-{1-[2-(tetrahydro-2H-pyran-4-yl)ethyl]piperidin-3-yl}-1,4-dihydrothiochromeno[4,3-c]pyrazole 5,5-dioxide]
2690 nM | Cc1noc(-c2cccc(-n3nc(C(=O)N4CCOCC4)c4c3-c3ccccc3S(=O)(=O)C4)c2)n1 [Example 196, 1-[3-(3-Methyl-1,2,4-oxadiazol-5-yl)phenyl]-3-(morpholin-4-ylcarbonyl)-1,4-dihydrothiochromeno[4,3-c]pyrazole 5,5-dioxide]
643 nM | O=C(c1nn(-c2cccc(CN3CC(F)(F)C3)c2)c2c1CS(=O)(=O)c1ccccc1-2)N1CCOCC1 [Example 261, 1-{3-[(3,3-Difluoroazetidin-1-yl)methyl]phenyl}-3-(morpholin-4-ylcarbonyl)-1,4-dihydrothiochromeno[4,3-c]pyrazole 5,5-dioxide]
236 nM | O=C(c1nn(C2CN(CCN3CCOCC3)C2)c2c1CS(=O)(=O)c1ccccc1-2)N1CCOCC1 [Example 407, 3-(Morpholin-4-ylcarbonyl)-1-[1-(2-morpholin-4-ylethyl)azetidin-3-yl]-1,4-dihydrothiochromeno[4,3-c]pyrazole 5,5-dioxide]
1200 nM | Cc1nnc(-c2cccc(-n3nc(C(=O)N4CCOCC4)c4c3-c3ccccc3S(=O)(=O)C4)c2)o1 [Example 182, 1-[3-(5-Methyl-1,3,4-oxadiazol-2-yl)phenyl]-3-(morpholin-4-ylcarbonyl)-1,4-dihydrothiochromeno[4,3-c]pyrazole 5,5-dioxide]
920 nM | CS(=O)(=O)C1CCN(Cc2ccc(-n3nc(C(=O)N4CCOCC4)c4c3-c3ccccc3S(=O)(=O)C4)cc2)C1 (stereo not drawn) [Example 229, 1-(4-{[3-(Methylsulfonyl)pyrrolidin-1-yl]methyl}phenyl)-3-(morpholin-4-ylcarbonyl)-1,4-dihydrothiochromeno[4,3-c]pyrazole 5,5-dioxide]
1690 nM | O=C(c1nn([C@@H]2CCN(CCC3CCOCC3)C2)c2c1CS(=O)(=O)c1c(F)cccc1-2)N1CCOCC1 (single isomer, unassigned) [Example 356, 6-fluoro-3-(morpholin-4-ylcarbonyl)-1-{1-[2-(tetrahydro-2H-pyran-4-yl)ethyl]pyrrolidin-3-yl}-1,4-dihydrothiochromeno[4,3-c]pyrazole 5,5-dioxide hydrochloride salt]
1620 nM | O=C(c1nn(-c2ccccc2)c2c1CS(=O)(=O)c1ccc(CN3CCOCC3)cc1-2)N1CCOCC1 [Example 162, 3-(Morpholin-4-ylcarbonyl)-8-(morpholin-4-ylmethyl)-1-phenyl-1,4-dihydrothiochromeno[4,3-c]pyrazole 5,5-dioxide]
1560 nM | O=C(c1nn(CC2CCCO2)c2c1CS(=O)(=O)c1ccccc1-2)N1CCOCC1 (stereo not drawn) [Example 45, 3-(morpholin-4-ylcarbonyl)-1-(tetrahydrofuran-2-ylmethyl)-1,4-dihydrothiochromeno[4,3-c]pyrazole 5,5-dioxide]
890 nM | O=C(c1nn(C2CCOC2)c2c1CS(=O)(=O)c1ccccc1-2)N1CCOCC1 (stereo not drawn) [Example 342, 3-(Morpholin-4-ylcarbonyl)-1-(tetrahydrofuran-3-yl)-1,4-dihydrothiochromeno[4,3-c]pyrazole 5,5-dioxide]
5020 nM | CN(C)c1ccc2c(c1)S(=O)(=O)Cc1c(C(=O)N3CCOCC3)nn(-c3ccccc3)c1-2 [Example 152, N,N-Dimethyl-3-(morpholin-4-ylcarbonyl)-1-phenyl-1,4-dihydrothiochromeno[4,3-c]pyrazol-7-amine 5,5-dioxide]
247 nM | O=C(c1nn(-c2ccc(CN3CCC(F)CC3)cc2)c2c1CS(=O)(=O)c1ccccc1-2)N1CCOCC1 [Example 167, 1-{4-[(4-Fluoropiperidin-1-yl)methyl]phenyl}-3-(morpholin-4-ylcarbonyl)-1,4-dihydrothiochromeno[4,3-c]pyrazole 5,5-dioxide]
57 nM | CC1CN(Cc2ccc(-n3nc(C(=O)N4CCOCC4)c4c3-c3ccccc3S(=O)(=O)C4)cc2)CC(C)O1 (stereo not drawn) [Example 435, 1-{4-[(2,6-Dimethylmorpholin-4-yl)methyl]phenyl}-3-(morpholin-4-ylcarbonyl)-1,4-dihydrothiochromeno[4,3-c]pyrazole 5,5-dioxide]
1440 nM | O=C(c1nn([C@H]2CCN(C3CCOCC3)C2)c2c1CS(=O)(=O)c1ccccc1-2)N1CCOCC1 (single isomer, unassigned) [Example 402]
232 nM | O=C(c1nn(-c2cccc(CN3CCSCC3)c2)c2c1CS(=O)(=O)c1ccccc1-2)N1CCOCC1 [Example 236, 3-(Morpholin-4-ylcarbonyl)-1-[3-(thiomorpholin-4-ylmethyl)phenyl]-1,4-dihydrothiochromeno[4,3-c]pyrazole 5,5-dioxide]
1540 nM | O=C(c1nn(-c2cccc(CN3CCCC(F)(F)C3)c2)c2c1CS(=O)(=O)c1ccccc1-2)N1CCOCC1 [Example 244, 1-{3-[(3,3-Difluoropiperidin-1-yl)methyl]phenyl}-3-(morpholin-4-ylcarbonyl)-1,4-dihydrothiochromeno[4,3-c]pyrazole 5,5-dioxide]
